In patent publication US12012467B2, “Small molecule DCN1 inhibitors and therapeutic methods using the same” (THE REGENTS OF THE UNIVERSITY OF MICHIGAN, priority 2017, dated 2024):

Target: DCN1 (Homo sapiens (Human), UniProt Q96GG9)
Test: Competitive FP binding assay
Conditions: bounds given in μM; read-out: Binding affinity to DCN1 (IC50)
Method in brief: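 FP competition with DCN1 in 100 mM phosphate pH 6.5, 0.02% Tween-20, 2% DMSO, probe 5 nM final. Equilibrated 30 min at room temperature with shaking. DCN1 was His6-tagged (uncleaved), expressed in E. coli Rosetta2 and purified by Ni-NTA and gel filtration.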

Chain of DCN1 (Q96GG9 58-259): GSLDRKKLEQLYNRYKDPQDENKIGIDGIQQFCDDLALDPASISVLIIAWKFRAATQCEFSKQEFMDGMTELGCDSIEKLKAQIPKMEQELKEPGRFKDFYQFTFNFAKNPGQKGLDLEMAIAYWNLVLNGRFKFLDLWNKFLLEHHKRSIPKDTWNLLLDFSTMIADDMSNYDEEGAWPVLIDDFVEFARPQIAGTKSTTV

IC50 [µM] | Compound
> 10 | CN(C)CCCC[C@H](NC(=O)[C@@H](NC(=O)[C@@H](N)Cc1nc2ccc(Cl)cc2s1)C1CCCC1)C(=O)N[C@@H]1CCOc2ccccc21 [Example 205]
> 10 | CCC(=O)N[C@@H](Cc1nc2ccc(Cl)cc2s1)C(=O)N[C@@H](C)CN [Example 220]
> 10 | CCC(=O)N[C@@H](Cc1nc(C)c(-c2ccccn2)s1)C(=O)N[C@H](CN)Cc1ccccc1 [Example 228]
> 10 | CCC(=O)N[C@@H](Cc1nc(C)c(-c2ccncc2)s1)C(=O)N[C@H](CN)Cc1ccccc1 [Example 230]
> 10 | CCC(=O)N[C@@H](Cc1nc(C)c(-c2cccc(C#N)c2)s1)C(=O)N[C@H](CN)Cc1ccccc1 [Example 231]
> 10 | CCC(=O)N[C@@H](Cc1nc2ccc(Cl)cc2s1)C(=O)NCCN [Example 235]
> 10 | NCCNC(=O)[C@H](Cc1nc2ccc(Cl)cc2s1)NC(=O)CCOc1ccccc1 [Example 237]
> 10 | NCCNC(=O)[C@H](Cc1nc2ccc(Cl)cc2s1)NC(=O)CCOCc1ccccc1 [Example 238]
> 10 | CCC(=O)N[C@@H](Cc1cn(-c2cccc(Cl)c2)cn1)C(=O)N[C@H](CN)Cc1ccccc1 [Example 239]

The remaining lines, values behind:

Compound | IC50 [µM]
CCC(=O)N[C@H](Cc1nc2ccc(Cl)cc2s1)C(=O)N[C@H](C(=O)N[C@@H](CCCCN)C(=O)N[C@@H]1CCOc2ccccc21)C1CCOCC1 [Example 199] | > 10
CCC(=O)N[C@H](Cc1nc2ccc(Cl)cc2s1)C(=O)N[C@@H](C[C@H]1CC[C@H](CN)CC1)C(=O)N[C@@H](CCCCN)C(=O)N[C@@H]1CCOc2ccccc21 [Example 201] | > 10
CCC(=O)N[C@H](Cc1nc2ccc(Cl)cc2s1)C(=O)N[C@@H](C(=O)N[C@H](CCCCN)C(=O)N[C@H]1CCOc2ccccc21)C1CCOCC1 [Example 204] | > 10
CCC(=O)N[C@@H](Cc1nc(CC)c(-c2ccccc2)s1)C(=O)N[C@H](CN)Cc1ccccc1 [Example 225] | > 3
CCC(=O)N[C@@H](Cc1nc(C)c(-c2cccnc2)s1)C(=O)N[C@H](CN)Cc1ccccc1 [Example 229] | > 10
CCC(=O)N[C@@H](Cc1nc(C)c(-c2cccc(C(F)(F)F)c2)s1)C(=O)N[C@H](CN)Cc1ccccc1 [Example 233] | > 10
COCCC(=O)N[C@@H](Cc1nc2ccc(Cl)cc2s1)C(=O)NCCN [Example 236] | > 10
CCC(=O)N[C@@H](Cc1nc2ccc(Cl)cc2s1)C(=O)NCc1ccccn1 [Example 251] | > 5

Same assay, conditions: read-out: Binding affinity to DCN1 (IC50 (nM))

IC50 [µM] | Compound
0.169 | CCC(=O)N[C@@H](Cc1nc2ccc(CC)cc2s1)C(=O)N[C@H](C(=O)N[C@@H](CCCCN)C(=O)N[C@@H]1CCOc2ccccc21)C1CCOCC1 [Example 186]
0.886 | CCC(=O)N[C@@H](Cc1nc(C)c(C(C)C)s1)C(=O)N[C@H](C(=O)N[C@@H](CCCCN)C(=O)N[C@@H]1CCOc2ccccc21)C1CCOCC1 [Example 187]
0.23 | CCC(=O)N[C@@H](Cc1nc2ccc(C)cc2s1)C(=O)N[C@H](C(=O)N[C@@H](C[C@H]1CC[C@H](CN)CC1)C(=O)N[C@@H]1CCOc2ccccc21)C1CCOCC1 [Example 189]
0.187 | CCC(=O)N[C@@H](Cc1nc2ccc(C)cc2s1)C(=O)N[C@H](C(=O)N[C@@H](CC1CCNCC1)C(=O)N[C@@H]1CCOc2ccccc21)C1CCOCC1 [Example 191]
0.171 | CCC(=O)N[C@@H](Cc1nc2ccc(CC)cc2s1)C(=O)N[C@H](C(=O)N[C@@H](CC1CCNCC1)C(=O)N[C@@H]1CCOc2ccccc21)C1CCOCC1 [Example 192]
0.171 | CCC(=O)N[C@@H](Cc1nc2ccc(CC)cc2s1)C(=O)N[C@H](C(=O)N[C@@H](CC1CCN(C)CC1)C(=O)N[C@@H]1CCOc2ccccc21)C1CCOCC1 [Example 193]
0.0711 | CCC(=O)N[C@@H](Cc1nc2ccc(CC)cc2o1)C(=O)N[C@H](C(=O)N[C@@H](CCCCN)C(=O)N[C@@H]1CCOc2ccccc21)C1CCOCC1 [Example 196]
0.102 | CCC(=O)N[C@@H](Cc1nc2ccc(C(F)(F)F)cc2o1)C(=O)N[C@H](C(=O)N[C@@H](CCCCN)C(=O)N[C@@H]1CCOc2ccccc21)C1CCOCC1 [Example 197]
0.203 | CCC(=O)N[C@@H](Cc1nc2ccc(Cl)cc2s1)C(=O)N[C@@H](C[C@H]1CC[C@H](CN)CC1)C(=O)N[C@@H](CCCCN)C(=O)N[C@@H]1CCOc2ccccc21 [Example 200]
0.282 | CCC(=O)N[C@@H](Cc1nc2ccc(Cl)cc2s1)C(=O)N[C@@H](Cc1ccncc1)C(=O)N[C@@H](CCCCN)C(=O)N[C@@H]1CCOc2ccccc21 [Example 203]
0.139 | CCC(=O)N[C@@H](Cc1nc(C)c(-c2cccc(Cl)c2)s1)C(=O)N[C@H](C(=O)N[C@@H](CCCCN)C(=O)N[C@@H]1CCOc2ccccc21)C1CCOCC1 [Example 207]
0.157 | CCC(=O)N[C@@H](Cc1cn2cc(Cl)ccc2n1)C(=O)N[C@H](C(=O)N[C@@H](CCCCN)C(=O)N[C@@H]1CCOc2ccccc21)C1CCOCC1 [Example 208]
0.278 | CNC(=O)N[C@@H](Cc1nc2ccc(Cl)cc2s1)C(=O)N[C@H](C(=O)N[C@@H](CCCCN)C(=O)N[C@@H]1CCOc2ccccc21)C1CCOCC1 [Example 209]
0.0556 | CCC(=O)N[C@@H](Cc1cn2cc(Cl)ccc2n1)C(=O)N[C@H](C(=O)N[C@@H](CCCCN)C(=O)N[C@@H]1CCOc2ccccc21)C1CCCC1 [Example 212]
0.559 | CCC(=O)N[C@@H](Cc1nc2ccc(Cl)cc2s1)C(=O)N[C@H](CN)C1CCCC1 [Example 216]
0.316 | CCC(=O)N[C@@H](Cc1nc2ccc(Cl)cc2s1)C(=O)N[C@H](CN)CC1CCCCC1 [Example 218]
1.56 | CCC(=O)N[C@@H](Cc1nc2ccc(Cl)cc2s1)C(=O)N[C@H](CN)C1CCOCC1 [Example 219]
0.858 | CCC(=O)N[C@@H](Cc1nc2ccc(Br)cc2s1)C(=O)N[C@H](CN)Cc1ccccc1 [Example 222]
0.949 | CCC(=O)N[C@@H](Cc1nc2ccc(C(C)(C)C)cc2s1)C(=O)N[C@H](CN)Cc1ccccc1 [Example 223]
0.575 | CCC(=O)N[C@@H](Cc1nc2ccc(Cl)cc2s1)C(=O)N[C@H](C(=O)NCCCCCN(C)C)C1CCCC1 [Example 224]
1.28 | CCC(=O)N[C@@H](Cc1nc(C)c(-c2cccc(F)c2)s1)C(=O)N[C@H](CN)Cc1ccccc1 [Example 234]
1.51 | CCC(=O)N[C@@H](Cc1nc2ccc(Cl)cc2s1)C(=O)N[C@H](C(=O)N[C@@H](CCCCN)C(=O)NCc1ccncc1)C1CCOCC1 [Example 243]

Further lines, the compound ahead of its results:

Compound | IC50 [µM]
CCC(=O)N[C@@H](Cc1nc2ccc(C)cc2s1)C(=O)N[C@H](C(=O)N[C@@H](CCCCN(C)C)C(=O)N[C@@H]1CCOc2ccccc21)C1CCOCC1 [Example 188] | 0.156
CCC(=O)N[C@@H](Cc1nc2ccc(C)cc2s1)C(=O)N[C@H](C(=O)N[C@H](C(=O)N[C@@H]1CCOc2ccccc21)C1CCNCC1)C1CCOCC1 [Example 190] | 0.412
CCC(=O)N[C@@H](Cc1nc2ccc(C)cc2o1)C(=O)N[C@H](C(=O)N[C@@H](CCCCN)C(=O)N[C@@H]1CCOc2ccccc21)C1CCOCC1 [Example 194] | 0.0938
CCC(=O)N[C@@H](Cc1nc2ccc(CC)cc2o1)C(=O)N[C@H](C(=O)N[C@@H](CCCCN)C(=O)N[C@@H]1CCOc2ccccc21)C1CCCC1 [Example 195] | 0.12
CCC(=O)N[C@@H](Cc1nc2ccc(Cl)cc2o1)C(=O)N[C@H](C(=O)N[C@@H](CCCCN)C(=O)N[C@@H]1CCOc2ccccc21)C1CCOCC1 [Example 198] | 0.12
CCC(=O)N[C@@H](Cc1nc2ccc(Cl)cc2s1)C(=O)N[C@@H](Cc1ccccn1)C(=O)N[C@@H](CCCCN)C(=O)N[C@@H]1CCOc2ccccc21 [Example 202] | 0.251
CCC(=O)N[C@@H](Cc1nc2ccc(C(C)C)cc2s1)C(=O)N[C@H](C(=O)N[C@@H](CCCCN)C(=O)N[C@@H]1CCOc2ccccc21)C1CCOCC1 [Example 206] | 0.0429
CCC(=O)N[C@@H](Cc1nc2ccc(Cl)cc2s1)C(=O)N[C@H](CN)[C@@H](C)CC [Example 213] | 0.746 ± 0.072
CCC(=O)N[C@@H](Cc1nc2ccc(C)cc2s1)C(=O)N[C@H](CN)[C@@H](C)CC [Example 214] | 0.491
CCC(=O)N[C@@H](Cc1nc2ccc(CC)cc2s1)C(=O)N[C@H](CN)[C@@H](C)CC [Example 215] | 0.23
CCC(=O)N[C@@H](Cc1nc2ccc(Cl)cc2s1)C(=O)N[C@H](CN)C1CCCCC1 [Example 217] | 0.346
CCC(=O)N[C@@H](Cc1nc2ccc(Cl)c(Cl)c2s1)C(=O)N[C@H](CN)Cc1ccccc1 [Example 221] | 0.294
CCC(=O)N[C@@H](Cc1nc2ccc(Cl)cc2s1)C(=O)N[C@H](CNC(=O)[C@H](C)CN1CCOCC1)Cc1ccccc1 [Example 226] | 0.611
CCC(=O)N[C@@H](Cc1nc2ccc(Cl)cc2s1)C(=O)N[C@H](CNC(=O)[C@@H](C)CN1CCOCC1)Cc1ccccc1 [Example 227] | 0.471
CCC(=O)N[C@@H](Cc1nc(C)c(-c2cccc(Br)c2)s1)C(=O)N[C@H](CN)Cc1ccccc1 [Example 232] | 0.984
CCC(=O)N[C@@H](Cc1nc2ccc(Cl)cc2s1)C(=O)N[C@H](C(=O)N[C@@H](CCCCN)C(=O)NCc1ccccn1)C1CCOCC1 [Example 241] | 0.913
CCC(=O)N[C@@H](Cc1nc2ccc(Cl)cc2s1)C(=O)N[C@H](C(=O)N[C@@H](CCCCN)C(=O)NCc1cccnc1)C1CCOCC1 [Example 242] | 1.2
CCC(=O)N[C@H](CNC(=O)c1ccccc1)Cc1nc2ccc(Cl)cc2s1 [Example 252] | 1.83
CCC(=O)N[C@H](CNC(=O)Cc1ccccc1)Cc1nc2ccc(Cl)cc2s1 [Example 253] | 1.2
CCC(=O)N[C@H](CNC(=O)C1CCCCC1)Cc1nc2ccc(Cl)cc2s1 [Example 254] | 1.34
CCC(=O)N[C@H](CNC(=O)CC1CCCC1)Cc1nc2ccc(Cl)cc2s1 [Example 255] | 0.802
CCC(=O)N[C@H](CNC(=O)c1ccccn1)Cc1nc2ccc(Cl)cc2s1 [Example 256] | 2.14
